Results reported in patent US11098032B2, “Pyran dervatives as CYP11A1 (cytochrome P450 monooxygenase 11A1) inhibitors” (ORION CORPORATION, priority 2016, dated 2021).

Target: T1, CYP11A1 (Homo sapiens, UniProt P05108)
T1 construct: human H295R adrenocortical carcinoma cell line was used as source of enzyme; endogenous in cells; host or cells: H295R human adrenocortical carcinoma cells
T1 sequence (P05108 40-521): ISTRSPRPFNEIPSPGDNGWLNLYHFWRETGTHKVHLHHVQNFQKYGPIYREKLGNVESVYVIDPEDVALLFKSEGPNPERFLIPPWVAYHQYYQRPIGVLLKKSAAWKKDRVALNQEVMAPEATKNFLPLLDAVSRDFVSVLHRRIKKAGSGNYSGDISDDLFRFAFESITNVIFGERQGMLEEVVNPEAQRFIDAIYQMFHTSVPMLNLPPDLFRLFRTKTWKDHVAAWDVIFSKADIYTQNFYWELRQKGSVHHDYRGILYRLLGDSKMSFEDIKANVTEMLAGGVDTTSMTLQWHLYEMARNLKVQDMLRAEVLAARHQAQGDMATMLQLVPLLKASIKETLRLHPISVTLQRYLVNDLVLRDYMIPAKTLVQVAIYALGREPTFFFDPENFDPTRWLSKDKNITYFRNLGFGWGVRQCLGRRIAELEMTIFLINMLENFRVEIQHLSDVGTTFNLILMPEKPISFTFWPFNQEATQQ
Experiment: CYP11A1 inhibition: modified isocaproic acid release assay (IARA) in H295R cells
Format: cell-based
Details: human H295R adrenocortical carcinoma cells treated three days, 3 nM [24,25-3H]-labelled cholesterol, 1% DMSO, 10 concentrations in duplicates; read-out: IC50 of the test compounds on CYP11A1 inhibition
Method in brief: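 Cholesterol side-chain cleavage followed as tritiated isocaproic acid in charcoal-extracted medium, counted by scintillation. Substrate was 3 nM [24,25-3H]-cholesterol on human H295R cells exposed for three days to ten compound concentrations (duplicates, 1% DMSO); IC50 derived.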

SMILES	IC50
O=C(c1ccc(COc2coc(CN3Cc4ccccc4C3)cc2=O)cc1)N1CCCC(O)C1 (stereo not shown) [Compound 160, 5-((4-(3-Hydroxypiperidine-1-carbonyl)benzyl)oxy)-2-(isoindolin-2-ylmethyl)-4H-pyran-4-one]	301 to 2000 nM
O=C(c1ccc(COc2coc(CN3Cc4ccc(F)cc4C3)cc2=O)cc1)N1CC(F)(F)C1 [Compound 161, 5-((4-(3,3-Difluoroazetidine-1-carbonyl)benzyl)oxy)-2-((5-fluoroisoindolin-2-yl)methyl)-4H-pyran-4-one]	150 to 300 nM
COc1ccc2c(c1)CN(Cc1cc(=O)c(OCc3ccc(C(=O)N4CC(F)(F)C4)cc3)co1)C2 [Compound 162, 5-((4-(3,3-Difluoroazetidine-1-carbonyl)benzyl)oxy)-2-((5-methoxyisoindolin-2-yl)methyl)-4H-pyran-4-one]	< 150 nM
O=C(c1ccc(COc2coc(CN3Cc4ccc(Cl)cc4C3)cc2=O)cc1)N1CC(F)(F)C1 [Compound 163, 2-((5-Chloroisoindolin-2-yl)methyl)-5-((4-(3,3-difluoroazetidine-1-carbonyl)-benzyl)oxy)-4H-pyran-4-one]	150 to 300 nM
O=c1cc(CN2Cc3ccccc3C2)occ1OCc1ccc(-c2ccccc2)cc1 [Compound 164, 5-([1,1′-Biphenyl]-4-ylmethoxy)-2-(isoindolin-2-ylmethyl)-4H-pyran-4-one]	150 to 300 nM
O=c1cc(CN2Cc3ccccc3C2)occ1OCc1ccc(-c2ccccn2)cc1 [Compound 165, 2-(Isoindolin-2-ylmethyl)-5-((4-(pyridin-2-yl)benzyl)oxy)-4H-pyran-4-one]	150 to 300 nM
CCS(=N)(=O)c1ccc(COc2coc(CN3CCc4ccccc4C3)cc2=O)cc1 (stereo not shown) [Compound 166, 2-((3,4-Dihydroisoquinolin-2(1H)-yl)methyl)-5-((4-(ethylsulfonimidoyl)-benzyl)oxy)-4H-pyran-4-one]	301 to 2000 nM
CCS(=N)(=O)c1ccc(COc2coc(CN3Cc4ccc([N+](=O)[O-])cc4C3)cc2=O)cc1 (stereo not shown) [Compound 168, 5-((4-(Ethylsulfonimidoyl)benzyl)oxy)-2-((5-nitroisoindolin-2-yl)methyl)-4H-pyran-4-one]	150 to 300 nM
CCCCNC(=O)c1ccc(COc2coc(CN3Cc4ccccc4C3)cc2=O)cc1 [Compound 169, N-Butyl-4-(((6-(isoindolin-2-ylmethyl)-4-oxo-4H-pyran-3-yl)oxy)methyl)-benzamide]	150 to 300 nM
CN(C)C(=O)c1ccc(COc2coc(CN3Cc4ccccc4C3)cc2=O)nc1 [Compound 170, 6-(((6-(Isoindolin-2-ylmethyl)-4-oxo-4H-pyran-3-yl)oxy)methyl)-N,N-dimethyl-nicotinamide]	301 to 2000 nM
NC(=O)c1ccc(COc2coc(CN3Cc4ccccc4C3)cc2=O)cc1F [Compound 171, 2-Fluoro-4-(((6-(isoindolin-2-ylmethyl)-4-oxo-4H-pyran-3-yl)oxy)methyl)-benzamide]	301 to 2000 nM
CN(C)C(=O)c1cc(F)c(COc2coc(CN3Cc4ccccc4C3)cc2=O)c(F)c1 [Compound 172, 3,5-Difluoro-4-(((6-(isoindolin-2-ylmethyl)-4-oxo-4H-pyran-3-yl)oxy)methyl)-N,N-dimethylbenzamide]	< 150 nM
CS(=O)(=O)NCC1CCC(COc2coc(CN3Cc4ccccc4C3)cc2=O)CC1 (stereo not shown) [Compound 173, N-((4-(((6-(Isoindolin-2-ylmethyl)-4-oxo-4H-pyran-3-yl)oxy)methyl)cyclohexyl)-methyl)methanesulfonamide]	< 150 nM
CN(C)C(=O)c1c(F)cc(COc2coc(CN3Cc4ccccc4C3)cc2=O)cc1F [Compound 174, 2,6-Difluoro-4-(((6-(isoindolin-2-ylmethyl)-4-oxo-4H-pyran-3-yl)oxy)methyl)-N,N-dimethylbenzamide]	150 to 300 nM
O=c1cc(CN2Cc3ccccc3C2)occ1OCC1CCC(CN2CCCS2(=O)=O)CC1 (stereo not shown) [Compound 176, 5-((4-((1,1-Dioxidoisothiazolidin-2-yl)methyl)cyclohexyl)methoxy)-2-(isoindolin-2-ylmethyl)-4H-pyran-4-one]	< 150 nM
CS(=O)(=O)N1[C@@H]2CC[C@H]1CC(COc1coc(CN3Cc4ccccc4C3)cc1=O)C2 (stereo partly drawn) [Compound 177, 2-(Isoindolin-2-ylmethyl)-5-(((1R,5S)-8-(methylsulfonyl)-8-azabicyclo[3.2.1]-octan-3-yl)methoxy)-4H-pyran-4-one]	150 to 300 nM
COC(=O)[C@H]1CC[C@H](COc2coc(CN3Cc4ccccc4C3)cc2=O)CC1 [Compound 178, Methyl (1r,4r)-4-(((6-(isoindolin-2-ylmethyl)-4-oxo-4H-pyran-3-yl)oxy)methyl)-cyclohexane-1-carboxylate]	301 to 2000 nM

SMILES	IC50
CS(=O)(=O)N1CCC(COc2coc(CN3CCc4ccccc4C3)cc2=O)CC1 [Compound 179, 2-((3,4-Dihydroisoquinolin-2(1H)-yl)methyl)-5-((1-(methylsulfonyl)piperidin-4-yl)methoxy)-4H-pyran-4-one]	301 to 2000 nM
O=C1NCc2cc(COc3coc(CN4Cc5ccccc5C4)cc3=O)ccc21 [Compound 180, 5-(((6-(Isoindolin-2-ylmethyl)-4-oxo-4H-pyran-3-yl)oxy)methyl)isoindolin-1-one]	150 to 300 nM
CN(C)C(=O)N1CCC(COc2coc(CN3Cc4ccc(F)cc4C3)cc2=O)CC1 [Compound 181, 4-(((6-((5-Fluoroisoindolin-2-yl)methyl)-4-oxo-4H-pyran-3-yl)oxy)methyl)-N,N-dimethylpiperidine-1-carboxamide]	150 to 300 nM
CC(C)(C)OC(=O)N1CCC(COc2coc(CN3Cc4ccccc4C3)cc2=O)C1 (stereo not shown) [Compound 182, tert-Butyl 3-(((6-(isoindolin-2-ylmethyl)-4-oxo-4H-pyran-3-yl)oxy)methyl)-pyrrolidine-1-carboxylate]	301 to 2000 nM
CN(C)C(=O)N1CCC(COc2coc(CN3Cc4ccccc4C3)cc2=O)C1 (stereo not shown) [Compound 183, 3-(((6-(Isoindolin-2-ylmethyl)-4-oxo-4H-pyran-3-yl)oxy)methyl)-N,N-dimethyl-pyrrolidine-1-carboxamide]	301 to 2000 nM
CS(=O)(=O)N1CCC(COc2coc(CN3Cc4ccc(C(F)(F)F)cc4C3)cc2=O)CC1 [Compound 184, 5-((1-(Methylsulfonyl)piperidin-4-yl)methoxy)-2-((5-(trifluoromethyl)isoindolin-2-yl)methyl)-4H-pyran-4-one]	< 150 nM
CS(=O)(=O)N1CCC(COc2coc(CN3Cc4ccccc4C3)cc2=O)CC1 [Compound 185, 2-(Isoindolin-2-ylmethyl)-5-((1-(methylsulfonyl)piperidin-4-yl)methoxy)-4H-pyran-4-one]	< 150 nM
CS(=O)(=O)N1CCC(COc2coc(CN3Cc4ccc(F)cc4C3)cc2=O)CC1 [Compound 186, 2-((5-Fluoroisoindolin-2-yl)methyl)-5-((1-(methylsulfonyl)piperidin-4-yl)-methoxy)-4H-pyran-4-one]	< 150 nM
O=c1cc(CN2Cc3ccccc3C2)occ1OCC1CCN(S(=O)(=O)C2CC2)CC1 [Compound 187, 5-((1-(Cyclopropylsulfonyl)piperidin-4-yl)methoxy)-2-(isoindolin-2-ylmethyl)-4H-pyran-4-one]	< 150 nM
CCS(=O)(=O)N1CCC(COc2coc(CN3Cc4ccccc4C3)cc2=O)CC1 [Compound 188, 5-((1-(Ethylsulfonyl)piperidin-4-yl)methoxy)-2-(isoindolin-2-ylmethyl)-4H-pyran-4-one]	< 150 nM
CCS(=O)(=O)N1CCC(COc2coc(CN3Cc4ccc(F)cc4C3)cc2=O)CC1 [Compound 189, 5-((1-(Ethylsulfonyl)piperidin-4-yl)methoxy)-2-((5-fluoroisoindolin-2-yl)methyl)-4H-pyran-4-one]	< 150 nM
O=c1cc(CN2Cc3ccc(F)cc3C2)occ1OCC1CCN(S(=O)(=O)C2CC2)CC1 [Compound 190, 5-((1-(Cyclopropylsulfonyl)piperidin-4-yl)methoxy)-2-((5-fluoroisoindolin-2-yl)methyl)-4H-pyran-4-one]	< 150 nM
CC1(COc2coc(CN3Cc4ccccc4C3)cc2=O)CCN(S(C)(=O)=O)CC1 [Compound 191, 2-(Isoindolin-2-ylmethyl)-5-((4-methyl-1-(methylsulfonyl)piperidin-4-yl)-methoxy)-4H-pyran-4-one]	150 to 300 nM
CCS(=O)(=O)N1CCC(C)(COc2coc(CN3Cc4ccccc4C3)cc2=O)CC1 [Compound 192, 5-((1-(Ethylsulfonyl)-4-methylpiperidin-4-yl)methoxy)-2-(isoindolin-2-ylmethyl)-4H-pyran-4-one]	< 150 nM
CS(=O)(=O)N1CCC(COc2coc(CN3Cc4ccccc4C3)cc2=O)C(O)C1 (stereo not shown) [Compound 193, 5-((3-Hydroxy-1-(methylsulfonyl)piperidin-4-yl)methoxy)-2-(isoindolin-2-yl-methyl)-4H-pyran-4-one]	301 to 2000 nM
Cc1ccc(S(=O)(=O)N=S2(=O)CCC(COc3coc(CN4Cc5ccccc5C4)cc3=O)CC2)cc1 (stereo not shown) [Compound 194, N-(4-(((6-(Isoindolin-2-ylmethyl)-4-oxo-4H-pyran-3-yl)oxy)methyl)-1-oxido-tetrahydro-2H-thiopyran-1-ylidene)-4-methylbenzenesulfonamide]	150 to 300 nM
CC(c1cc(=O)c(OCC2CCN(S(C)(=O)=O)CC2)co1)N1Cc2ccccc2C1 (stereo not shown) [Compound 195]	< 150 nM
